Experimental data published in PubChem BioAssay (NCI).
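GI50 is the concentration that inhibits growth by half. TGI: concentration producing complete growth inhibition.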

Assays:
Assay in all cases: growth of human tumour cells (NCI), 384-well format
[1] = system: IGROV1 ovarian
[2] = system: NCI-H460 NSCLC
[3] = system: BT-549 breast
[4] = system: T-47D breast
[5] = system: HOP-62 NSCLC
[6] = system: COLO 205 colon
[7] = system: SR leukemia
[8] = system: NCI-H226 lung
[9] = system: HCC-2998 colon
[10] = system: LOX IMVI melanoma
[11] = system: OVCAR-4 ovarian
[12] = system: HL-60(TB) leukemia
[13] = system: A498 renal
[14] = system: MALME-3M melanoma
[15] = system: HCT-116 colon
[16] = system: SK-MEL-2 melanoma
[17] = system: U251 glioblastoma
[18] = system: OVCAR-5 ovarian
[19] = system: NCI-H23 lung
[20] = system: MDA-MB-435 melanoma
[21] = system: MOLT-4 leukemia
[22] = system: OVCAR-3 ovarian
[23] = system: OVCAR-8 ovarian
[24] = system: KM12 colon
[25] = system: HS 578T breast
[26] = system: ACHN renal
[27] = system: TK-10 renal
[28] = system: SK-MEL-5 melanoma
[29] = system: HOP-92 NSCLC
[30] = system: M14 melanoma
[31] = system: SK-OV-3 ovarian
[32] = system: RXF 393 renal
[33] = system: NCI-H322M lung
[34] = system: SF-539 CNS
[35] = system: SNB-75 CNS
[36] = system: UACC-62 melanoma
[37] = system: SNB-19 CNS
[38] = system: MDA-MB-468 breast
[39] = system: MCF7 breast
[40] = system: 786-0 renal
[41] = system: SK-MEL-28 melanoma
[42] = system: EKVX NSCLC
[43] = system: PC-3 prostate
[44] = system: CAKI-1 renal
[45] = system: SF-295 CNS
[46] = system: A549 NSCLC
[47] = system: HCT-15 colon
[48] = system: NCI/ADR-RES ovarian
[49] = system: CCRF-CEM leukemia
[50] = system: RPMI-8226 leukemia
[51] = system: NCI-H522 lung
[52] = system: MDA-MB-231 breast
[53] = system: UACC-257 melanoma
[54] = system: SN12C renal
[55] = system: DU-145 prostate
[56] = system: HT29 colon
[57] = system: SF-268 CNS
[58] = system: SW-620 colon
[59] = system: K-562 leukemia

N#Cc1ccc(-c2c(-c3ncn[nH]3)sc(N3CCOCC3)c2C#N)c(F)c1
GI50 [1]: 0.191 µM | TGI [1]: 0.631 µM | GI50 [2]: 0.68 µM | TGI [2]: 11.4 µM | GI50 [3]: 1.95 µM | TGI [3]: 12.8 µM | GI50 [4]: 0.152 µM | TGI [4]: 2.54 µM | GI50 [5]: 3.4 µM | TGI [5]: 21 µM | GI50 [6]: 1.65 µM | TGI [6]: 17.4 µM | GI50 [7]: 0.763 µM | TGI [7]: 2.57 µM | GI50 [8]: 2.01 µM | TGI [8]: 17.3 µM | GI50 [9]: 1.23 µM | TGI [9]: 10.8 µM | GI50 [10]: 1.93 µM | TGI [10]: 13.5 µM | GI50 [11]: 1.96 µM | TGI [11]: 22.1 µM | GI50 [12]: 0.209 µM | TGI [12]: 1.44 µM | GI50 [13]: 0.577 µM | TGI [13]: 2.67 µM | GI50 [14]: 0.95 µM | TGI [14]: 6.92 µM | GI50 [15]: 1.52 µM | TGI [15]: 38.5 µM | GI50 [16]: 2.64 µM | TGI [16]: 12.6 µM | GI50 [17]: 7.2 µM | TGI [17]: > 80.6 µM | GI50 [18]: 1.01 µM | TGI [18]: 26.1 µM | GI50 [19]: 2.35 µM | TGI [19]: > 55.3 µM | GI50 [20]: 2.47 µM | TGI [20]: 19.5 µM | GI50 [21]: 0.413 µM | TGI [21]: 1.71 µM | GI50 [22]: 0.837 µM | TGI [22]: 5.83 µM | GI50 [23]: 3.52 µM | TGI [23]: > 60.2 µM | GI50 [24]: 3.64 µM | TGI [24]: 20.3 µM | GI50 [25]: 0.779 µM | TGI [25]: 16 µM | GI50 [26]: 0.525 µM | TGI [26]: 14.2 µM | GI50 [27]: 0.789 µM | TGI [27]: 9.59 µM | GI50 [28]: 1.77 µM | TGI [28]: 10 µM | GI50 [29]: 1.16 µM | TGI [29]: > 33 µM | GI50 [30]: 2.95 µM | TGI [30]: 31.8 µM | GI50 [31]: 0.315 µM | TGI [31]: 5.89 µM | GI50 [32]: 1.27 µM | TGI [32]: 7.45 µM | GI50 [33]: 1.32 µM | TGI [33]: 5.36 µM | GI50 [34]: 1.7 µM | TGI [34]: 20 µM | GI50 [35]: 0.32 µM | GI50 [36]: 1.01 µM | TGI [36]: 10.8 µM | GI50 [37]: 14.7 µM | TGI [37]: > 70.8 µM | GI50 [38]: 0.54 µM | TGI [38]: 2.68 µM | GI50 [39]: 0.222 µM | TGI [39]: 20.6 µM | GI50 [40]: 2.13 µM | TGI [40]: 11.5 µM | GI50 [41]: 1.76 µM | TGI [41]: > 67.9 µM | GI50 [42]: 0.368 µM | TGI [42]: 3.44 µM | GI50 [43]: 0.641 µM | TGI [43]: 8.87 µM | GI50 [44]: 0.557 µM | TGI [44]: 13.2 µM | GI50 [45]: 1.24 µM | TGI [45]: 15.7 µM | GI50 [46]: 1.35 µM | TGI [46]: 11.8 µM | GI50 [47]: 1.69 µM | TGI [47]: 15.9 µM | GI50 [48]: 5.53 µM | TGI [48]: 63.6 µM | GI50 [49]: 2.21 µM | TGI [49]: 9.61 µM | GI50 [50]: 1.82 µM | TGI [50]: 5.06 µM | GI50 [51]: 1.98 µM | TGI [51]: 17.3 µM | GI50 [52]: 5.88 µM | TGI [52]: > 62.6 µM | GI50 [53]: 2.51 µM | TGI [53]: 15.1 µM | GI50 [54]: 0.145 µM | TGI [54]: 3.77 µM | GI50 [55]: 1.91 µM | TGI [55]: 15.1 µM | GI50 [56]: 0.9 µM | TGI [56]: 17.9 µM | GI50 [57]: 4.1 µM | TGI [57]: 33 µM | GI50 [58]: 4.94 µM | TGI [58]: 23.6 µM | GI50 [59]: 6.27 µM | TGI [59]: > 100 µM

CN1CCN(c2ccc(OC(F)(F)F)c(Nc3ncc4c(n3)-c3c(c(C(N)=O)nn3CCO)CC4)c2)CC1
GI50 [1]: 0.0406 µM | TGI [1]: 15.9 µM | GI50 [2]: 0.0178 µM | TGI [2]: 0.0377 µM | GI50 [4]: 0.184 µM | TGI [4]: 8.33 µM | GI50 [5]: 0.0252 µM | TGI [5]: 0.297 µM | GI50 [8]: 14.8 µM | TGI [8]: 56.3 µM | GI50 [9]: 0.0184 µM | TGI [9]: 0.0616 µM | GI50 [11]: 6.1 µM | TGI [11]: 27.1 µM | GI50 [12]: < 0.01 µM | TGI [12]: < 0.01 µM | GI50 [13]: 0.0871 µM | TGI [13]: 17.3 µM | GI50 [14]: 0.0685 µM | TGI [14]: 16.7 µM | GI50 [15]: 0.0198 µM | TGI [15]: 13 µM | GI50 [18]: 0.0308 µM | TGI [18]: > 100 µM | GI50 [19]: 0.0139 µM | TGI [19]: 0.0377 µM | GI50 [20]: 0.0108 µM | TGI [20]: 0.0288 µM | GI50 [21]: 0.01 µM | TGI [21]: 0.0221 µM | GI50 [22]: < 0.01 µM | TGI [22]: 0.0372 µM | GI50 [23]: 0.0183 µM | TGI [23]: 0.0376 µM | GI50 [24]: 0.0114 µM | TGI [24]: 0.0954 µM | GI50 [25]: 0.0202 µM | TGI [25]: 0.0541 µM | GI50 [26]: 0.554 µM | TGI [26]: 19.7 µM | GI50 [27]: 17.3 µM | TGI [27]: > 100 µM | GI50 [28]: 0.0115 µM | TGI [28]: 0.121 µM | GI50 [29]: 0.0739 µM | TGI [29]: 6.66 µM | GI50 [31]: 0.0376 µM | TGI [31]: > 100 µM | GI50 [32]: 0.0151 µM | TGI [32]: 0.0439 µM | GI50 [34]: 0.0308 µM | TGI [34]: 0.263 µM | GI50 [35]: 0.064 µM | TGI [35]: 4.69 µM | GI50 [37]: 0.0392 µM | TGI [37]: > 100 µM | GI50 [38]: < 0.01 µM | TGI [38]: < 0.01 µM | GI50 [39]: 0.0183 µM | TGI [39]: 12.5 µM | GI50 [40]: 0.0527 µM | TGI [40]: 10.3 µM | GI50 [42]: 0.0936 µM | TGI [42]: 19.4 µM | GI50 [43]: 0.0438 µM | TGI [43]: 35.2 µM | GI50 [44]: 0.478 µM | TGI [44]: 19.4 µM | GI50 [47]: 0.0561 µM | TGI [47]: 0.347 µM | GI50 [48]: 0.325 µM | TGI [48]: 1.33 µM | GI50 [49]: < 0.01 µM | TGI [49]: < 0.01 µM | GI50 [51]: < 0.01 µM | TGI [51]: 0.0266 µM | GI50 [52]: 0.0383 µM | TGI [52]: 58.1 µM | GI50 [54]: 0.546 µM | TGI [54]: 15.1 µM | GI50 [55]: 0.0264 µM | TGI [55]: 0.104 µM | GI50 [57]: < 0.01 µM | TGI [57]: 0.012 µM | GI50 [58]: 0.0136 µM | TGI [58]: 0.145 µM
